Literature values as cited in article PMC12256174, “Next-Generation Oral Delivery Systems: Phytosomal Hinokitiol Tablets via REGEMAT 3D Bioprinter-Based 3D Printing for Enhanced Bioavailability” (Scientifica, 2025).
≈ marks a conversion by molar mass, not a printed value.

In the case of CC(C)c1cccc(=O)c(O)c1 [Hinokitiol], the aqueous solubility is given as 1120 ± 20 µg/mL (≈ 6.82 mM).
